Values quoted from earlier work in patent publication US8523569B2, “Controlled release local anesthetic for post dental surgery and method of use” (priority 2007, dated 2013).

Conditions: immediate release vasoconstrictor, known to the art

CNC[C@H](O)c1ccc(O)c(O)c1 [epinephrine]
prolongation of local anesthetic activity, at best: ≤ 1 h
